Experiments:
[1] = target: IL-2-Inducible T-Cell Kinase (ITK) (Homo sapiens (Human), UniProt Q08881); test: ITK enzyme assay (IL-2-inducible T-cell kinase activity); type: biochemical; settings: geometric mean of count n
Outline: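 Full-length N-Flag/C-His human ITK, pre-incubated 30 min at RT with compound. Reaction in HEPES pH 7.5 buffer with MgCl2, glutathione, gelatin and Brij-35, started with BTK peptide substrate, 60 min at RT. EDTA stop, PT66/APC TR-FRET detection overnight; IC50 fitted by four-parameter logistic.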

[2] = system: activated CD4+ human T-cells (IL-2); test: IL-2 inhibition in supernatants from activated CD4+ human T-cells (cisbio HTRF); type: cell-based; settings: T-cell; CD3/CD28-activated CD4+ human T cells, ImmunoCult stimulation 20 to 24 hrs; geometric mean of count n
Outline: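 Primary human CD4+ T cells activated with CD3/CD28 for 3 days and expanded to 7-9 days total, plated at 30,000 cells/well. Cells preincubated 15 min with compound, then stimulated with ImmunoCult (1:50 final) for 20-24 h at 37° C. Supernatant IL-2 measured by HTRF (665/615 nm); IC50 from four-parameter logistic fit.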

IL-2-Inducible T-Cell Kinase (ITK), sequence (Q08881 whole entry): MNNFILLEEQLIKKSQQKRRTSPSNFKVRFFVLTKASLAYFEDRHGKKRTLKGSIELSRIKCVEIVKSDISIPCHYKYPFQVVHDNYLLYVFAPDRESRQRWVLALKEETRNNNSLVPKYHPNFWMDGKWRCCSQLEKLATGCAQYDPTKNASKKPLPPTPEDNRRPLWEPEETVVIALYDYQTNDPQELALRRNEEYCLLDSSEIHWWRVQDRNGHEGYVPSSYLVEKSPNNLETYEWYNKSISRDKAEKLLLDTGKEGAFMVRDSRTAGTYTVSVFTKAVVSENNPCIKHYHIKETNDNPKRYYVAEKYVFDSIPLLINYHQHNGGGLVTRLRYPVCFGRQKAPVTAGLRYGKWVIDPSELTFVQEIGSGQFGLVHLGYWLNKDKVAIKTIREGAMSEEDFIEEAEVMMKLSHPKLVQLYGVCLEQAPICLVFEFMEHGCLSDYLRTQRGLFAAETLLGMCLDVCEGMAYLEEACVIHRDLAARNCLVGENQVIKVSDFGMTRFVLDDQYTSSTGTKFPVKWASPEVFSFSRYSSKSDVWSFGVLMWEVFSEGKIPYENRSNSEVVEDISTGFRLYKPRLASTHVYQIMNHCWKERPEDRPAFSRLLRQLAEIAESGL

SMILES | IC50 [1] [nM] | IC50 [2] [nM]
CN(C(=O)C1(C)CCOCC1)c1cnc2nc(-c3n[nH]c4c3C[C@@H]3C[C@]3(C)C4)[nH]c2c1 [Example 70, N,4-Dimethyl-N-(2-((4aS,5aR)-5a-methyl-1,4,4a,5,5a,6-hexahydrocyclopropa[f]indazol-3-yl)-1H-imidazo[4,5-b]pyridin-6-yl)tetrahydro-2H-pyran-4-carboxamide] | 93 | 462
CCCC(=O)N(C)c1cnc2nc(-c3n[nH]c4c3C[C@@H]3C[C@]3(C)C4)[nH]c2c1 [Example 71, N-Methyl-N-(2-((4aS,5aR)-5a-methyl-1,4,4a,5,5a,6-hexahydrocyclopropa[f]indazol-3-yl)-1H-imidazo[4,5-b]pyridin-6-yl)butyramide] | 42 | 313
CC(C)CC(=O)N(C)c1cnc2nc(-c3n[nH]c4c3C[C@@H]3C[C@]3(C)C4)[nH]c2c1 [Example 72, N,3-Dimethyl-N-(2-((4aS,5aR)-5a-methyl-1,4,4a,5,5a,6-hexahydrocyclopropa[f]indazol-3-yl)-1H-imidazo[4,5-b]pyridin-6-yl)butanamide] | 39 | 248
CN(C(=O)CC(C)(C)C)c1cnc2nc(-c3n[nH]c4c3C[C@@H]3C[C@]3(C)C4)[nH]c2c1 [Example 73, N,3,3-Trimethyl-N-(2-((4aS,5aR)-5a-methyl-1,4,4a,5,5a,6-hexahydrocyclopropa[f]indazol-3-yl)-1H-imidazo[4,5-b]pyridin-6-yl)butanamide] | 57 | 498
CC(C)CCC(=O)N(C)c1cnc2nc(-c3n[nH]c4c3C[C@@H]3C[C@]3(C)C4)[nH]c2c1 [Example 74, N,4-Dimethyl-N-(2-((4aS,5aR)-5a-methyl-1,4,4a,5,5a,6-hexahydrocyclopropa[f]indazol-3-yl)-1H-imidazo[4,5-b]pyridin-6-yl)pentanamide] | 50 | 311
CC(=O)N(CC(=O)N(C)c1cnc2nc(-c3n[nH]c4c3C[C@@H]3C[C@]3(C)C4)[nH]c2c1)C(C)C [Example 75, 2-(N-Isopropylacetamido)-N-methyl-N-(2-((4aS,5aR)-5a-methyl-1,4,4a,5,5a,6-hexahydrocyclopropa[f]indazol-3-yl)-1H-imidazo[4,5-b]pyridin-6-yl)acetamide] | 57 | 862
CCC(C)CC(=O)N(C)c1cnc2nc(-c3n[nH]c4c3C[C@@H]3C[C@]3(C)C4)[nH]c2c1 (stereo partly drawn) [Example 76, N,3-Dimethyl-N-(2-((4aS,5aR)-5a-methyl-1,4,4a,5,5a,6-hexahydrocyclopropa[f]indazol-3-yl)-1H-imidazo[4,5-b]pyridin-6-yl)pentanamide] | 51 | 389
CN(C(=O)CC1CCC1)c1cnc2nc(-c3n[nH]c4c3C[C@@H]3C[C@]3(C)C4)[nH]c2c1 [Example 77, 2-Cyclobutyl-N-methyl-N-(2-((4aS,5aR)-5a-methyl-1,4,4a,5,5a,6-hexahydrocyclopropa[f]indazol-3-yl)-1H-imidazo[4,5-b]pyridin-6-yl)acetamide] | 27 | 247
CC(C)C(=O)N(C)CC(=O)N(C)c1cnc2nc(-c3n[nH]c4c3C[C@@H]3C[C@]3(C)C4)[nH]c2c1 [Example 78, N-Methyl-N-(2-(methyl(2-((4aS,5aR)-5a-methyl-1,4,4a,5,5a,6-hexahydrocyclopropa[f]indazol-3-yl)-1H-imidazo[4,5-b]pyridin-6-yl)amino)-2-oxoethyl)isobutyramide] | 35 | 552
CN(C(=O)CN1CCCCC1=O)c1cnc2nc(-c3n[nH]c4c3C[C@@H]3C[C@]3(C)C4)[nH]c2c1 [Example 79, N-Methyl-N-(2-((4aS,5aR)-5a-methyl-1,4,4a,5,5a,6-hexahydrocyclopropa[f]indazol-3-yl)-1H-imidazo[4,5-b]pyridin-6-yl)-2-(2-oxopiperidin-1-yl)acetamide] | 43 | 1590
CN(C(=O)C1CCCC1)c1cnc2nc(-c3n[nH]c4c3C[C@@H]3C[C@]3(C)C4)[nH]c2c1 [Example 81, N-Methyl-N-(2-((4aS,5aR)-5a-methyl-1,4,4a,5,5a,6-hexahydrocyclopropa[f]indazol-3-yl)-1H-imidazo[4,5-b]pyridin-6-yl)cyclopentanecarboxamide] | 21 | 182
CCC(CC)C(=O)N(C)c1cnc2nc(-c3n[nH]c4c3C[C@@H]3C[C@]3(C)C4)[nH]c2c1 [Example 82, 2-Ethyl-N-methyl-N-(2-((4aS,5aR)-5a-methyl-1,4,4a,5,5a,6-hexahydrocyclopropa[f]indazol-3-yl)-1H-imidazo[4,5-b]pyridin-6-yl)butanamide] | 20 | 176
CC[C@H](C)C(=O)N(C)c1cnc2nc(-c3n[nH]c4c3C[C@@H]3C[C@]3(C)C4)[nH]c2c1 [Example 83, (S)-N,2-Dimethyl-N-(2-((4aS,5aR)-5a-methyl-1,4,4a,5,5a,6-hexahydrocyclopropa[f]indazol-3-yl)-1H-imidazo[4,5-b]pyridin-6-yl)butanamide] | 47 | 371
CN(C(=O)C12CC(C1)C2)c1cnc2nc(-c3n[nH]c4c3C[C@@H]3C[C@]3(C)C4)[nH]c2c1 [Example 85, N-Methyl-N-(2-((4aS,5aR)-5a-methyl-1,4,4a,5,5a,6-hexahydrocyclopropa[f]indazol-3-yl)-1H-imidazo[4,5-b]pyridin-6-yl)bicyclo[1.1.1]pentane-1-carboxamide] | 91 | 1220
CC[C@@H](C)C(=O)N(C)c1cnc2nc(-c3n[nH]c4c3C[C@@H]3C[C@]3(C)C4)[nH]c2c1 [Example 87, (R)-N,2-Dimethyl-N-(2-((4aS,5aR)-5a-methyl-1,4,4a,5,5a,6-hexahydrocyclopropa[f]indazol-3-yl)-1H-imidazo[4,5-b]pyridin-6-yl)butanamide] | 26 | 246
CCC(C)(C)C(=O)N(C)c1cnc2nc(-c3n[nH]c4c3C[C@@H]3C[C@]3(C)C4)[nH]c2c1 [Example 88, N,2,2-Trimethyl-N-(2-((4aS,5aR)-5a-methyl-1,4,4a,5,5a,6-hexahydrocyclopropa[f]indazol-3-yl)-1H-imidazo[4,5-b]pyridin-6-yl)butanamide] | 118 | 808
CN(c1cnc2nc(-c3n[nH]c4c3C[C@@H]3C[C@]3(C)C4)[nH]c2c1)C(=O)[C@H]1C[C@@H](C)C1 [Example 89, (1s,3R)-N,3-Dimethyl-N-(2-((4aS,5aR)-5a-methyl-1,4,4a,5,5a,6-hexahydrocyclopropa[f]indazol-3-yl)-1H-imidazo[4,5-b]pyridin-6-yl)cyclobutane-1-carboxamide] | 27 | 324
CN(C(=O)C1CCOCC1)c1cnc2[nH]c(-c3n[nH]c4c3CCC(C)(C)C4)nc2c1 [Example 90, N-(2-(6,6-Dimethyl-4,5,6,7-tetrahydro-1H-indazol-3-yl)-3H-imidazo[4,5-b]pyridin-6-yl)-N-methyltetrahydro-2H-pyran-4-carboxamide] | 545 | 892
CN(C(=O)CC(C)(C)C)c1cnc2[nH]c(-c3n[nH]c4c3CCC(C)(C)C4)nc2c1 [Example 91, N-(2-(6,6-Dimethyl-4,5,6,7-tetrahydro-1H-indazol-3-yl)-3H-imidazo[4,5-b]pyridin-6-yl)-N,3,3-trimethylbutanamide] | 144 | 384
CC[C@H](C)C(=O)N(C)c1cnc2[nH]c(-c3n[nH]c4c3CCC(C)(C)C4)nc2c1 [Example 92, (S)-N-(2-(6,6-Dimethyl-4,5,6,7-tetrahydro-1H-indazol-3-yl)-3H-imidazo[4,5-b]pyridin-6-yl)-N,2-dimethylbutanamide] | 698 | > 10000
CCC1(C(=O)N(C)c2cnc3[nH]c(-c4n[nH]c5c4CCC(C)(C)C5)nc3c2)CCOCC1 [Example 94, N-(2-(6,6-Dimethyl-4,5,6,7-tetrahydro-1H-indazol-3-yl)-3H-imidazo[4,5-b]pyridin-6-yl)-4-ethyl-N-methyltetrahydro-2H-pyran-4-carboxamide] | 307 | 3170
CN(C(=O)C1(F)CCOCC1)c1cnc2[nH]c(-c3n[nH]c4c3CCC(C)(C)C4)nc2c1 [Example 98, N-(2-(6,6-Dimethyl-4,5,6,7-tetrahydro-1H-indazol-3-yl)-3H-imidazo[4,5-b]pyridin-6-yl)-4-fluoro-N-methyltetrahydro-2H-pyran-4-carboxamide] | 122 | 1310
CN(C(=O)CC(C)(C)C(F)F)c1cnc2[nH]c(-c3n[nH]c4c3CCC(C)(C)C4)nc2c1 [Example 99, N-(2-(6,6-Dimethyl-4,5,6,7-tetrahydro-1H-indazol-3-yl)-3H-imidazo[4,5-b]pyridin-6-yl)-4,4-difluoro-N,3,3-trimethylbutanamide] | 59 | 233
CN(C(=O)C1(C)CC(F)(F)C1)c1cnc2[nH]c(-c3n[nH]c4c3CCC(C)(C)C4)nc2c1 [Example 100, N-(2-(6,6-Dimethyl-4,5,6,7-tetrahydro-1H-indazol-3-yl)-3H-imidazo[4,5-b]pyridin-6-yl)-3,3-difluoro-N,1-dimethylcyclobutane-1-carboxamide] | 104 | 682
CN(C(=O)C1(F)CCCCC1)c1cnc2[nH]c(-c3n[nH]c4c3CCC(C)(C)C4)nc2c1 [Example 101, N-(2-(6,6-Dimethyl-4,5,6,7-tetrahydro-1H-indazol-3-yl)-3H-imidazo[4,5-b]pyridin-6-yl)-1-fluoro-N-methylcyclohexane-1-carboxamide] | 48 | 464
